Reference: patent publication US3985779A, “M-phenoxyphenyl propionic acid derivatives and preparation thereof” (Eisai Co., Ltd., priority 1973, dated 1976)
Like-named read-outs stand apart in the source and are kept apart here.

Columns and labels:
[1] = in vivo; details: mouse, po
Method: Comparison of toxicity of the phenyl propionic acid derivatives of the present invention and that of the other known anti-inflammatory agents was carried out in mice.

[2] = test system: Kaolin-induced edema; experiment: Inhibitory activity on Kaolin-induced Edema in Rats (Experiment B); assay type: in vivo
[3] = test system: Dextran-induced edema; experiment: Inhibitory activity on dextran-induced edema in rats (Experiment C); assay type: in vivo
Method: Inhibitory activity on dextran-induced edema in rats Experiment was carried out in the manner same as those of the preceding Experiments in which dextran was employed as irritant substance.

[4] = test system: ARRS-induced edema; experiment: Inhibitory activity on anti-rat-rabbit serum (ARRS)-induced edema in rats (Experiment D); assay type: in vivo
Method: Inhibitory activity on anti-rat-rabbit serum (ARRS)-induced edema in rats Similar Experiments was carried out by using ARRS as irritant substance.

[5] = test system: Adjuvant-induced arthritis; experiment: Inhibitory activity on Adjuvant arthritis in rats (Experiment E); assay type: in vivo
Text: The inflammatory score and the volumes of the right and left paws of the rats were observed.

[6] = test system: yeast-induced pyrexia; experiment: Antipyretic activity to the yeast-treated rats (Experiment I); assay type: in vivo, rats (Wistar strain male)
Method: To Wistar strain male rats having about 300 - 350 grs. body weight, an aqueous suspension of yeast was subcutaneously injected to induce pyrexia.
At the lapse of 4 hours since the dose of the yeast suspension, the compounds under test given in hereinaftermentioned Table 10 in a form of suspension in a 5% gum arabic aqueous solution are orally administered. The rectal temperatures of the rats were measured periodically by means of a thermister-type thermometer sold by Japan Koden K.K. As control, said 5% gum arabic aqueous solution alone was administered.

[7] = test system: writhing syndrome; experiment: Analgesic activity: antagonism to acetic acid writhing syndrome in mice (Experiment J); assay type: in vivo, mice (dd strain male)
Method: Analgesic activity of the compound of the present invention in comparison with the known compounds.
Analgesic activity of the compound was tested as the measure of antagonism to writhing syndrome appeared when 0.1 ml/10g of 0.7% acetic acid was intraperitoneally injected to the dd strain male mice having 17 - 20 grs. body weight which had been abstinence from food for 18 hours.
The compounds under test were orally administered in a form of suspension in a 5% aqueous solution of gum arabic. After one hour from the administration, the onset times required for the writhing syndrome were scored.
In another Experiment in the combined use of the compounds under test and Codeine phosphate, 10 - 20 mg/kg of Codeine phosphate were orally administered immediatly after the oral administration of the compounds under test.

[8] = test system: granuloma induced by Formalin Filter paper Pellet; details: for Adrenal / Granuloma-Wet-Weight (in words) / Thymus: 6 days
[9] = daily oral 40 mg/kg for 9 days, final

## COc1ccc2c(c1)c(CC(=O)O)c(C)n2C(=O)c1ccc(Cl)cc1 [INDOMETHACIN]
[1]
  LD50: 37.5 mg/kg

## CC(C)Cc1ccc(C(C)C(=O)O)cc1 (stereo not drawn) [Ibuprofen, 2,4'-isobutylphenylpropionic acid, reference compound]
[2]; after 3 hrs, oral 8 mg/kg
  % of Inhibition: 25%
  Edema D. ± S.E.: .313 ± .093
[2]; after 3 hrs, oral 40 mg/kg
  % of Inhibition: 36%
  Edema D. ± S.E.: .267 ± .055
[2]; after 5 hrs, oral 8 mg/kg
  % of Inhibition: 20%
  Edema D. ± S.E.: .450 ± .075
[2]; after 5 hrs, oral 40 mg/kg
  % of Inhibition: 29%
  Edema D. ± S.E.: .401 ± .068
[2]; after 7 hrs, oral 8 mg/kg
  % of Inhibition: 6%
  Edema D. ± S.E.: .571 ± .046
[2]; after 7 hrs, oral 40 mg/kg
  % of Inhibition: 15%
  Edema D. ± S.E.: .514 ± .105
[2]; oral 40 - 50 mg/kg
  inhibitory effect on edema: 15%
[3]; after 2 hrs, oral 8 mg/kg
  % of Inhibition: 5%
  Edema D. ± S.E.: .791 ± .038
[3]; after 2 hrs, oral 40 mg/kg
  % of Inhibition: 9%
  Edema D. ± S.E.: .760 ± .075
[3]; after 3 hrs, oral 8 mg/kg
  % of Inhibition: 9%
  Edema D. ± S.E.: .683 ± .024
[3]; after 3 hrs, oral 40 mg/kg
  % of Inhibition: 6%
  Edema D. ± S.E.: .705 ± .056
[4]; after 2 hrs, oral 8 mg/kg
  % of Inhibition: 10%
  Edema D. ± S.E.: .615 ± .062
[4]; after 2 hrs, oral 40 mg/kg
  % of Inhibition: 10%
  Edema D. ± S.E.: .608 ± .047
[4]; after 3 hrs, oral 8 mg/kg
  % of Inhibition: 12%
  Edema D. ± S.E.: .627 ± .049
[4]; after 3 hrs, oral 40 mg/kg
  % of Inhibition: 27%
  Edema D. ± S.E.: .520 ± .026
[5]; [9]
  Final Score, Mean, left paw: 2.2
  Final Score, Mean, right paw: 3.8
  Final Score, Total, left paw: 11
  Final Score, Total, right paw: 19
[5]; daily oral 40 mg/kg, initial
  Initial Score, Mean, left paw: 1.8
  Initial Score, Mean, right paw: 3.8
  Initial Score, Total, left paw: 9
  Initial Score, Total, right paw: 19
[6]; 1 hr, 1.25 mg/kg p.o.
  Change in rectal temperature, mean ± S.E.: +0.03 ± 0.05
[6]; 1 hr, 5 mg/kg p.o.
  Change in rectal temperature, mean ± S.E.: -0.75 ± 0.09
[6]; 1 hr, 20 mg/kg p.o.
  Change in rectal temperature, mean ± S.E.: -0.65 ± 0.18
[6]; 1 hr, 80 mg/kg p.o.
  Change in rectal temperature, mean ± S.E.: -0.70 ± 0.25
[6]; 1 hr, 160 mg/kg p.o.
  Change in rectal temperature, mean ± S.E.: -0.70 ± 0.08
[6]; 3 hrs, 1.25 mg/kg p.o.
  Change in rectal temperature, mean ± S.E.: +0.05 ± 0.12
[6]; 3 hrs, 5 mg/kg p.o.
  Change in rectal temperature, mean ± S.E.: -0.80 ± 0.21
[6]; 3 hrs, 20 mg/kg p.o.
  Change in rectal temperature, mean ± S.E.: -0.93 ± 0.13
[6]; 3 hrs, 80 mg/kg p.o.
  Change in rectal temperature, mean ± S.E.: -1.03 ± 0.19
[6]; 3 hrs, 160 mg/kg p.o.
  Change in rectal temperature, mean ± S.E.: -0.95 ± 0.28
[6]; 5 hrs, 1.25 mg/kg p.o.
  Change in rectal temperature, mean ± S.E.: -0.18 ± 0.12
[6]; 5 hrs, 5 mg/kg p.o.
  Change in rectal temperature, mean ± S.E.: -0.20 ± 0.33
[6]; 5 hrs, 20 mg/kg p.o.
  Change in rectal temperature, mean ± S.E.: -0.95 ± 0.15
[6]; 5 hrs, 80 mg/kg p.o.
  Change in rectal temperature, mean ± S.E.: -0.90 ± 0.22
[6]; 5 hrs, 160 mg/kg p.o.
  Change in rectal temperature, mean ± S.E.: -1.03 ± 0.29
[6]; Rattus norvegicus, po, read-out: dose with apparent antipyretic activity
  minimal effective dose: > 5 mg/kg
[6]; p.o.
  dose with maximum antipyretic activity: 20 mg/kg
[7]; 10 mg/kg p.o. combined with Codeine Phosphate 10 mg/kg
  Onset time of writhing syndrome, mean ± S.E.: 4.4 ± 0.3 min
[7]; 10 mg/kg p.o. combined with Codeine Phosphate 20 mg/kg
  Onset time of writhing syndrome, mean ± S.E.: 9.2 ± 1.4 min
[7]; 20 mg/kg p.o. combined with Codeine Phosphate 10 mg/kg
  Onset time of writhing syndrome, mean ± S.E.: 6.0 ± 1.1 min
[7]; 20 mg/kg p.o. combined with Codeine Phosphate 20 mg/kg
  Onset time of writhing syndrome, mean ± S.E.: 6.1 ± 0.4 min
[7]; 40 mg/kg p.o. combined with Codeine Phosphate 10 mg/kg
  Onset time of writhing syndrome, mean ± S.E.: 8.0 ± 1.6 min
[7]; 40 mg/kg p.o. combined with Codeine Phosphate 20 mg/kg
  Onset time of writhing syndrome, mean ± S.E.: 11.0 ± 1.4 min
[7]; 80 mg/kg p.o. combined with Codeine Phosphate 10 mg/kg
  Onset time of writhing syndrome, mean ± S.E.: 9.2 ± 1.3 min
[7]; 80 mg/kg p.o. combined with Codeine Phosphate 20 mg/kg
  Onset time of writhing syndrome, mean ± S.E.: 13.3 ± 0.8 min
[7]; Mus musculus, 1 h, single oral administration, read-out: dose with significant antagonism / retardation of writhing syndrome
  minimal effective dose: 80 mg/kg
[7]; test compound alone, 10 mg/kg p.o.
  Onset time of writhing syndrome, mean ± S.E.: 5.5 ± 1.4 min
[7]; test compound alone, 20 mg/kg p.o.
  Onset time of writhing syndrome, mean ± S.E.: 5.6 ± 1.4 min
[7]; test compound alone, 40 mg/kg p.o.
  Onset time of writhing syndrome, mean ± S.E.: 4.5 ± 0.4 min
[7]; test compound alone, 80 mg/kg p.o.
  Onset time of writhing syndrome, mean ± S.E.: 6.5 ± 1.1 min
[8]; daily oral 8 mg/kg
  Adrenal: 39.2 mg
  Granuloma-Wet-Weight (in words): Non Effective
  Thymus: 631 mg
[8]; daily oral 40 mg/kg
  Adrenal: 34.3 mg
  Granuloma-Wet-Weight (in words): Non Effective
  Thymus: 471 mg
[8]; oral 8 and 40 mg/kg/day for successive 6 days
  inhibitory activity on granuloma (in words): entirely not effective
